Measurements taken from PubChem BioAssay AID1996.
≈ marks a conversion by molar mass, not a printed value.

settings: buffer; pH 7.4; 200.0 µM

SMILES	solubility kinetic
CC(C)Oc1ccc(C2CC(=O)N(C)C2=O)cc1 (stereo not given)	> 37.1 µg/mL
CC(C)(C)c1ccc(C(=O)NC(=O)CSc2n[nH]c(N)n2)cc1	> 50 µg/mL
O=C1CSC(=Nc2ccc(Cl)cc2)N1Cc1cccnc1	8.3 µg/mL (≈ 26.1 µM)
CC(=O)c1ccc(NC(=O)CCNC(=O)c2ccc(Cl)cc2)cc1	5.4 µg/mL (≈ 15.7 µM)
C=CCC1Cc2c(Br)cccc2C(CC=C)N1 (stereo not given)	13.3 µg/mL (≈ 45.5 µM)
S=c1[nH]cnc2scc(-c3ccc(Cl)cc3)c12	0.5 µg/mL (≈ 1.79 µM)
Nc1cc(=O)[nH]c(SCC(=O)Nc2cc([N+](=O)[O-])ccc2Cl)n1	4.4 µg/mL (≈ 12.4 µM)
NC1=C([N+](=O)[O-])C(c2ccc3c(c2)OCO3)C2=C(CCCC2=O)O1 (stereo not given)	48.4 µg/mL (≈ 147 µM)
O=C1CSCC(=O)N1Cc1ccc(Cl)cc1Cl	38.2 µg/mL (≈ 132 µM)
Cc1cc(=O)oc2cc(NC(=O)c3cccc(S(C)(=O)=O)c3)ccc12	3.5 µg/mL (≈ 9.79 µM)
Br.COc1ccc(-c2nc3n(c2C)CCC3)cc1	> 46.4 µg/mL
Cc1oc(-c2ccc(Cl)cc2)cc1C(=O)/C(C#N)=C/Nc1ccccc1	1.4 µg/mL (≈ 3.86 µM)
O=C(O)/C=C/c1ccc2noc(-c3ccccc3)c2c1	3.7 µg/mL (≈ 13.9 µM)
O=C(Nc1ccc2c(c1)OCO2)c1ccc(CO)cc1	> 40.7 µg/mL
COc1ccc(NC(=O)COC(=O)CCc2ccc(S(=O)(=O)N3CCOCC3)cc2)cc1OC	62 µg/mL (≈ 126 µM)
CC(C)Cc1ccc(C(=O)NCc2ccc3c(c2)OCO3)o1	28.3 µg/mL (≈ 93.9 µM)
COC(=O)c1ccc(NC(=S)Nc2ccc(O)cc2)cc1	22.3 µg/mL (≈ 73.8 µM)

SMILES	solubility kinetic
Cc1cnc(C(=O)OCC(=O)c2ccc(F)cc2)cn1	> 41.1 µg/mL
CCCC/C(O)=C1\C(=O)CC(C)(C)CC1=NCCCCCC(=O)O	> 50.6 µg/mL
COc1ccccc1CCC(=O)Oc1ccc(C#N)cc1OC	9.5 µg/mL (≈ 30.5 µM)
CC(=O)Nc1ccc(NC(=O)Nc2cc(C)cc(C)c2)cc1	0.8 µg/mL (≈ 2.69 µM)
CCOC(=O)Cc1csc(NC(=O)CC(C)(C)CC(=O)O)n1	> 49.3 µg/mL
Cc1ccc(SCCC(=O)OC(C(=O)NC(N)=O)C(C)C)cc1 (stereo not given)	7 µg/mL (≈ 20.7 µM)
Cc1csc(NC(=O)c2sccc2C)n1	> 35.7 µg/mL
C[n+]1cccc(/C=N/Nc2nc(Cl)c(C#N)c(Cl)c2Cl)c1.[Cl-]	> 56.6 µg/mL
COc1ccc(Cn2c(C(C)C)nc3sc4ccccc4c(=O)c3c2=O)cc1	< 0.4 µg/mL
O=C(Cc1ccc(F)cc1)Nc1nccs1	34.4 µg/mL (≈ 146 µM)
CCOC(=O)c1c(NC(=O)c2cc(C)on2)c2cc([N+](=O)[O-])ccc2n1C	1.6 µg/mL (≈ 4.3 µM)
O=C(Nc1ccc2c(c1)OCCO2)c1cccc(Cl)c1Cl	35.5 µg/mL (≈ 110 µM)
CCSC1=C(C#N)C2(CCCCC2)C2=C(CC(C)(C)CC2=O)N1	1 µg/mL (≈ 3.03 µM)
COC(=O)c1ccc(S(=O)(=O)NCc2ccc(OC)cc2)n1C	> 50.8 µg/mL
Cc1cc(C)nc(N(C#N)Cc2cccc(Cl)c2)n1	23.6 µg/mL (≈ 86.5 µM)
COc1ccc(NC(=O)C(CC(=O)O)Cc2ccc(Cl)cc2)cc1 (stereo not given)	> 52.2 µg/mL
Cc1cc(-c2ccccc2)oc(=O)c1NC(=O)c1ccccc1	< 0.7 µg/mL

More lines, now with the values ahead:

solubility kinetic	SMILES
0.7 µg/mL (≈ 2.33 µM)	C=CCNc1nc(N)c([N+](=O)[O-])c(NCc2ccccc2)n1
0.4 µg/mL (≈ 1.34 µM)	CC(C)Oc1nc(-c2ccccc2Cl)nc2ccccc12
25.3 µg/mL (≈ 74.3 µM)	Cc1ccnc(N(C(=O)Nc2ccccc2)C2=NCC(C)(C)S2)c1
> 53.9 µg/mL	COC(=O)c1[nH]c2ccccc2c1NC(=O)C(C)N1CC(C)OC(C)C1 (stereo not given)
1.8 µg/mL (≈ 5.95 µM)	O=C1C(Nc2ccccc2)=C2CCCC=C2N1c1ccccc1
26.6 µg/mL (≈ 120 µM)	Nc1ccc2nc(-c3ccccc3)cnc2c1
41.1 µg/mL (≈ 120 µM)	NCCNC(=O)c1c(NC(=O)c2ccccc2)sc2c1CCCC2
> 38.3 µg/mL	Cn1c(CNc2ccc(F)cc2)nc2ccccc21
44.1 µg/mL (≈ 148 µM)	CC(=O)c1cccc(NC(=O)C2COc3ccccc3O2)c1 (stereo not given)
36.5 µg/mL (≈ 141 µM)	CC(=O)Nc1c(O)c2cccc3c2n(c1=O)CCC3
> 39.9 µg/mL	Cc1ccccc1N=C1NC(=O)C(CO)(CO)S1
1.7 µg/mL (≈ 5.22 µM)	O=C(Nc1ccccc1)c1cc([N+](=O)[O-])ccc1N1CCCCC1
49.7 µg/mL (≈ 138 µM)	CN(CC(=O)Nc1cccc(F)c1)CC(=O)Nc1ccccc1[N+](=O)[O-]
5.5 µg/mL (≈ 14.4 µM)	Cc1oc(S(=O)(=O)N2CCCCC2)cc1NC(=O)Nc1ccc(F)cc1
0.5 µg/mL (≈ 1.5 µM)	S=C(Nc1cccc(Cl)c1)N1CCN(c2ccccn2)CC1
71.3 µg/mL (≈ 142 µM)	COc1ccc(NS(=O)(=O)c2cccc(C(=O)NCC(c3cccs3)N3CCOCC3)c2)cc1 (stereo not given)
12.9 µg/mL (≈ 40.1 µM)	O=C(COC(=O)CC1CC2CCC1C2)Nc1ccccc1Cl (stereo not given)
> 72.6 µg/mL	COc1ccc(C(CNS(=O)(=O)c2ccc(NC(C)=O)c(OC)c2)N2CCCC2)cc1.Cl (stereo not given)
> 53.2 µg/mL	CCOC(=O)C1CCCN(CCC(=O)Nc2ccccc2C)C1.Cl (stereo not given)
2.2 µg/mL (≈ 7.52 µM)	Cc1ccc(CNC(=O)Cc2cn(C)c3ccccc23)cc1
50.9 µg/mL (≈ 144 µM)	COc1ccccc1OC(C)C(=O)N1CCC(Cc2ccccc2)CC1 (stereo not given)
24.1 µg/mL (≈ 107 µM)	Cc1cccc(NC(=O)c2cccnc2)c1C
3.7 µg/mL (≈ 9.86 µM)	O=C(COC(=O)/C=C/c1ccc([N+](=O)[O-])cc1)NC(=O)NC1CCCCC1
30.5 µg/mL (≈ 109 µM)	CC(Cc1ccccc1)NC(=O)c1cc2ccccc2o1 (stereo not given)
> 36.9 µg/mL	O=C(c1ccc2ncsc2c1)N1CCCCC1
> 45.2 µg/mL	COc1ccccc1N1CCN(C(=O)c2cc(C)on2)CC1

solubility kinetic	SMILES
> 42.5 µg/mL	Cc1cccc(C(=O)NCCNC(=O)c2ccccn2)c1
> 59.3 µg/mL	Cc1cccc(NS(=O)(=O)c2ccc(C)c(C(=O)NCc3cccnc3)c2)c1
4.9 µg/mL (≈ 16.5 µM)	O=C(NCc1ccccc1F)c1cc(=O)[nH]c2ccccc12
39.7 µg/mL (≈ 119 µM)	Cc1cc(C(=O)NC2CCCN(Cc3ccc(Cl)cc3)C2)no1 (stereo not given)
1.7 µg/mL (≈ 5.15 µM)	COc1ccc(NC(=S)NC(=O)Cc2ccccc2)c(OC)c1
49 µg/mL (≈ 150 µM)	COC(CNC(=O)c1ccc2nc3ccccc3c(=O)n2c1)OC
> 40.1 µg/mL	CN(C)C/C=C/C(O)(c1ccccc1)c1ccccc1
10.3 µg/mL (≈ 33.1 µM)	CSc1ccc(CN(C)C(=O)c2cc3ccccc3o2)cc1
> 43.1 µg/mL	COCCCN(CC(=O)O)S(=O)(=O)c1ccccc1
38.1 µg/mL (≈ 121 µM)	COc1ccc(CCN(C)C(=O)c2cnc(C)cn2)cc1OC
31 µg/mL (≈ 118 µM)	CC(C)(C)C(=O)NC(=S)N1CCc2ccccc21
> 43.2 µg/mL	COc1ccc(-c2cc(C(=O)N3CCOCC3)no2)cc1
8.3 µg/mL (≈ 19.9 µM)	CCN(CC)c1ccc(C=Nc2cccc(S(=O)(=O)N3CCOCC3)c2)c(O)c1
> 53 µg/mL	COc1ccc(C(=O)N2CCc3cc4c(cc3C2C)OCCCO4)cc1 (stereo not given)
> 29 µg/mL	O=C(O)/C=C/c1ccccc1[N+](=O)[O-]
> 51.4 µg/mL	CCOc1ccccc1Nc1nc(N)nc(CN2CCCCC2C)n1 (stereo not given)
> 44.9 µg/mL	COc1ccc(C(=O)NCCCc2ccccc2)cc1OC
> 36.8 µg/mL	CCCC(=O)N1CCC(Cc2ccccc2)CC1
> 42.2 µg/mL	O=C(NCCCn1ccnc1)c1ccc2nccnc2c1
> 49.6 µg/mL	COc1ccc(C(=O)NC2CC3CCCC(C2)N3CC(C)C)cc1 (stereo not given)
4.8 µg/mL (≈ 16.5 µM)	COc1nc(C)cc(C)c1S(=O)(=O)c1ccccc1C
42.7 µg/mL (≈ 133 µM)	CN1CCN(C(=O)C2CC(=O)N(c3ccc(Cl)cc3)C2)CC1 (stereo not given)
> 46.8 µg/mL	CC[C@H](C)[C@H](NC(N)=O)C(=O)NCCc1ccc(Cl)cc1
> 45.4 µg/mL	CCCNC(=S)N1CCC(n2cnc3ccccc32)CC1
19.1 µg/mL (≈ 61 µM)	Cc1cc(Br)ccc1NC(=S)NC1CCCC1
